Data taken from patent US20130143933A1, “TARGETED CORRECTION OF A GENETIC DEFECT IN CANCER THERAPY” (TRT Pharma Inc., priority 2011, published 2013).

Key:
Nrf2 [1] = assay: Immunoblotting of Nrf2 protein levels in A549 cells; assay type: cell-based; settings: 48 hours, NR16 at 1 and 5 μM, compared to DMSO
Protocol: This effect is mediated by a depletion of Nrf2, as confirmed by immunoblotting of Nrf2 protein levels in A549 cells, exposed to NR16 for 48 hours (FIG. 4).

[2] = test system: A2ARE-dependent reporter activity in A549 cells; assay: ARE-dependent luciferase assay (A2ARE-luc reporter) in A549 cells; assay type: cell-based; settings: NR16 at 1, 2.5 and 5 μM, NR13 at 2.5 μM, 24 hours, vs DMSO vehicle
Protocol: A549 cells are highly resistant to carboplatin and constitutively express high level of Nrf2 due to a mutation (G333C) in Keap1. Using ARE-dependent luciferase assays in A549 cells, which have constitutively high Nrf2 levels, the 18 compounds that are designed to target the CTD of Keap1 are tested. Included amongst these are NR16 and NR13. […] A2ARE-luc plasmid is transiently transfected into A549 cells. pRL-TK is included as internal control. Transfected cells are treated with DMSO vehicle, compound NR16 at 1, 2.5 and 5 μM as well as NR13 at 2.5 μM for 24 hours. **p<0.005, ***p<0.0005 when compared with DMSO vehicle.
A2ARE-luc and pRL-TK plasmids are transiently transfected into A549 cells. 6 hours after transfection, the transfected cells are exposed to DMSO vehicle control or compound at designated doses (5 μM) for 24 hours. ***p<0.0001 when compared with vehicle control.

MCF7 cells = assay: Sensitization to cisplatin or paclitaxel in Keap1-depleted (siRNA) MCF7 cells, Alamar blue; assay type: cell-based; settings: MCF7 cells with Keap1 depletion (siRNA); PF-04691502 50nM for 24 h
Description: To further test the specific cytotoxicity of PF-04691502, H460 cells are transfected with an siRNA specifically designed to deplete GSK-3R levels. Another siRNA that depletes Keap1 is used to test whether cells which have an activating mutation of PI3K, but WT Keap1, (e.g. MCF7), are sensitized by PF-04691502 when Keap1 is depleted. The pSuper platform (OligoEngine, Seattle, Wash.) is used to clone both siRNAs. Small inhibitory RNA sequences are designed using software available online at invitrogen.com. The siRNA, when dimerized form Bgl II and Hind III restriction sites. The oligos are cloned into the Bgl II/Hind III sites of the pSuper-puro vector.
These experiments confirm that the proposed mechanism of sensitization is GSK-dependent in Keap1 mutated or depleted (siRNA) cells. Cells are exposed to PF-04691502 50nM for 24 h, at which time media is replaced with fresh PF-04691502 and one of either cisplatin or paclitaxel is added at various doses. Cell survival is determined using Alamar blue. The shift in IC50 is determined.

pAkt (and pGSK-3β) = settings: mouse xenograft models; oral, once daily, 10 mg/Kg; cited from earlier work
[3] = test system: A549 cells (wild type PI3K); assay: phospho-GSK / Nrf2 level in A549 cells exposed to PF-04691502; assay type: cell-based; settings: even at a higher dose
Protocol: (§1) H460 cells, which bear both mutations in PI3K (E545K) and Keap1 (D286H) are exposed the cells to the dual and potent PI3K and mTOR inhibitor PF-04691502 currently in clinical development. Within 6 hours a dramatic drop in phospho-GSK at the critical Ser9 position is detected (FIG. 6A). Within 24 hours cellular Nrf2 is reduced (FIG. 6A). This is not observed even at a higher dose in A549 cells, which have wild type PI3K (FIG. 6B).

MCF-7 cells = assay: Sensitization to paclitaxel, AlamarBlue cell survival, MCF-7; assay type: cell-based; settings: MCF-7, PI3K mutation but no Keap1 mutation
A549 = assay: Sensitization to paclitaxel, AlamarBlue cell survival, A549; assay type: cell-based; settings: A549, Keap1 mutation but wild type PI3K
Nrf2 [4] = assay: Cellular Nrf2 level in H460 cells exposed to PF-04691502; assay type: cell-based; settings: within 24 hours
Protocol: as §1

[5] = test system: phospho-GSK at Ser9 position; assay: phospho-GSK (Ser9) level in H460 cells exposed to PF-04691502; assay type: cell-based; settings: H460 cells (PI3K E545K, Keap1 D286H); within 6 hours
Protocol: as §1

H460 cells = assay: Sensitization to paclitaxel, AlamarBlue cell survival, H460; assay type: cell-based; settings: PF at 10 and 50 nm, range of paclitaxel doses
Protocol: PF-04691502 is tested to determine is it sensitizes H460 cells to paclitaxel in vitro, using two concentrations of PF (10 and 50 nm) and a range of paclitaxel doses. Cell survival is measured using AlamarBlue and fluorescence detection for viable (metabolically active) cells with 560Exnm/590EMnm filters.

## O=C(CCCSCCCC(=O)N/N=C/c1ccccc1)N/N=C/c1ccccc1 [NR13]
Nrf2 [1]
  Nrf2 protein level (western blot): inactive
[2]
  A2ARE-dependent reporter activity: inactive

## O=C(CCCSCCCC(=O)N/N=C/c1ccccc1O)N/N=C/c1ccccc1O [NR16]
Nrf2 [1]
  Nrf2 protein level (western blot): dose-dependent decrease
[2]
  A2ARE-dependent reporter activity: suppressed A2ARE-dependent reporter activity

## COc1ccc(-c2cc3c(C)nc(N)nc3n([C@H]3CC[C@H](OCCO)CC3)c2=O)cn1 [PF-04691502]
MCF7 cells
  sensitization to cisplatin or paclitaxel (cell survival): sensitizing effect
pAkt (and pGSK-3β)
  depletion of phosphorylated forms of proteins in the PI3K pathway such as pAkt (and pGSK-3β): significant depletion
  persistence of depletion of phosphorylated PI3K pathway proteins: ≥ 8 h
[3]
  drop in phospho-GSK / reduction of cellular Nrf2: not observed
MCF-7 cells
  sensitization to paclitaxel (cell survival): no sensitization
A549
  sensitization to paclitaxel (cell survival): no sensitization
Nrf2 [4]
  cellular Nrf2: reduced
[5]
  phospho-GSK at Ser9 position: dramatic drop
H460 cells
  sensitization to paclitaxel (cell survival): significant sensitization
